Measured values as given in patent publication US20220313777A1, “INHALED DELIVERY OF PEPTIDE MIMICS OF CXCL10 FOR TARGETED ANTI-FIBROTIC THERAPY” (University of Pittsburgh - Of the Commonwealth System of …, priority 2019, published 2022).

What was measured:
[1] = system: primary lung fibroblasts from scleroderma patients; test: RT-qPCR of pro-fibrotic mRNAs in TGF-β-treated primary lung fibroblasts; format: cell-based, human; settings: peptide 10 ng/mL plus TGF-β 10 ng/mL, 24 hours, delta-delta Ct, GAPDH housekeeping
Protocol: Primary lung fibroblasts from scleroderma patients were treated with TGF-β alone, or with IP-10-1 (SEQ ID NO: 2; FIGS. 1A-1C), IP-10-2 (SEQ ID NO: 3; FIGS. 1D-1F), or IP-10-3 (SEQ ID NO: 4; FIGS. 1G-1I) peptide (10 ng/mL) in the presence or absence of TGF-β (10 ng/mL) for 24 hours and then analyzed by RT-qPCR for the fibrotic ECM markers tenascin C (FIGS. 1A, 1D, 1G), collagen 1 (FIGS. 1B, 1E, 1H) and fibronectin (FIGS. 1C, […], 1I). Treatment with TGF-β alone induced expression of mRNAs for tenascin C (TNC), collagen 1 (COL1A1), and fibronectin (FN1) in primary lung fibroblasts. When cells were treated with an IP-10 peptide in combination with TGF-β, the IP-10 peptides reduced or prevented induction in mRNA expression of TNC, COL1A1, and FN1.
Primary lung fibroblasts from scleroderma patients were plated in 6-well plates in complete medium and incubated overnight. The next day, the medium was changed to quiescent medium and the cells were incubated in this medium for 24 hours. The following day, cells were left untreated, treated with 10 ng/mL of IP-10-1 (SEQ ID NO: 2), IP-10-2 (SEQ ID NO: 3) or IP-10-3 (SEQ ID NO: 4) peptide, treated with 10 ng/mL TGF-β, or treated with the combination of peptide and TGF-β for 24 hours. Total RNA was extracted using the Qiagen miRNeasy kit (Qiagen) and treated with DNase1, according to the manufacturer's instructions. RNA was then quantified and converted to cDNA using the Clontech RNA to cDNA EcoDry Double Primed Premix (Takara). qPCR was performed using PowerUp Sybr Green (Invitrogen) on an Applied Biosystems Quant Studio 3 instrument. Primers were from IDT and were designed using IDT Primer Quest and NCBI Primer Blast tools. The delta-delta Ct method was used to determine relative expression of the pro-fibrotic mRNAs for tenascin C (TNC), collagen 1 (COL1A1), and fibronectin (FN1). GAPDH was used as a housekeeping gene.

[2] = molecular target: T1, CXCR3B isoform (Homo sapiens, UniProt P49682); settings: described in WO 2013/032853 and WO 2015/112505; cited from earlier work
T1 construct: host or cells: dermal endothelial cells (as described in the cited PCT publications)
T1 sequence (P49682 1-415 isoform P49682-2): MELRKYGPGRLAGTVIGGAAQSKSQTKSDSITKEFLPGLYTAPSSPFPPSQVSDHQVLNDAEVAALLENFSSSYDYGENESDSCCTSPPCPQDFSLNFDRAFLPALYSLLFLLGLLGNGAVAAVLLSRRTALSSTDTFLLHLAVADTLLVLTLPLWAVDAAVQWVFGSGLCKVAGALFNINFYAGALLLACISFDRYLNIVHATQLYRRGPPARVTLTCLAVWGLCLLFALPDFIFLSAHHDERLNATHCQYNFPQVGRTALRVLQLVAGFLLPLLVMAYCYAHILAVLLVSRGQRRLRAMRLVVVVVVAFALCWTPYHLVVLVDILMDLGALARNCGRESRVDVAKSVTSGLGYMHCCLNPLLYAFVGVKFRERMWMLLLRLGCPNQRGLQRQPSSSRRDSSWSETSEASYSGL

[3] = system: angiogenesis; settings: earlier work, not tested in anti-fibrotic applications; cited from earlier work

Sequence: FAKAIKNFAKAVAKFA [IP-10-3, CXCL10 (IP-10) peptide variant]
- expression of collagen 1 (COL1A1) mRNA relative to treatment with TGF-β alone [1]: significantly reduced or prevented
- expression of fibronectin (FN1) mRNA relative to treatment with TGF-β alone [1]: significantly reduced or prevented
- expression of tenascin C (TNC) mRNA relative to treatment with TGF-β alone [1]: significantly reduced or prevented

Sequence: PESKAIKNLLKAVSKEMSKRSP [IP-10p, CXCL10 peptide consisting of the α-helical domain (residues 77-98 of human CXCL10)]
- activation of the CXCR3B isoform [2]: activates the CXCR3B isoform
- inhibition of angiogenesis [3]: able to inhibit angiogenesis

Sequence: PESKVIKNLLKVASKERSKRSP [IP-10-1, CXCL10 (IP-10) peptide variant]
- expression of collagen 1 (COL1A1) mRNA relative to treatment with TGF-β alone [1]: significantly reduced or prevented
- expression of fibronectin (FN1) mRNA relative to treatment with TGF-β alone [1]: significantly reduced or prevented
- expression of tenascin C (TNC) mRNA relative to treatment with TGF-β alone [1]: significantly reduced or prevented

Sequence: PESRVIKNLLRVVSKEKSRRSP [IP-10-2, CXCL10 (IP-10) peptide variant]
- expression of collagen 1 (COL1A1) mRNA relative to treatment with TGF-β alone [1]: significantly reduced or prevented
- expression of fibronectin (FN1) mRNA relative to treatment with TGF-β alone [1]: significantly reduced or prevented
- expression of tenascin C (TNC) mRNA relative to treatment with TGF-β alone [1]: significantly reduced or prevented
